# Assays:
# Assay type in all cases: cell-based
# [1] = system: human pancreatic islet beta cells; assay: Beta cell proliferation in human islet microtissues (EdU / NKX6.1 3D staining and microscopy); conditions: for proliferating beta cell fraction (EdU+NKX6.1+/NKX6.1 %): 0.3 μM
# Experimental: (§1) The ability of menin-MLL inhibitors to induce beta cell proliferation is tested on human islet microtissue preparations (InSphero). Briefly, human islet microtissues are produced by enzymatic dissociation of the primary islet cells followed by controlled scaffold-free hanging-drop-based self-reaggregation of the islet cells (Misun et al., 2020, Adv. Biosyst. 2020, 4, 1900291). The process helps eliminate contaminating exocrine cells, while enabling homogenous and native-like distribution of endocrine cells within each islet microtissue. Islet microtissues generated by this process are uniform in size, and cellular composition, long lived, functionally robust and display long-term and stable functionality and viability during in vitro culture (Misun et al., 2020, Adv. Biosyst. 2020, 4, 1900291). The methodology confirms primary human beta cells can be cultured long term (few weeks) under ex-vivo culture conditions to enable beta cell expansion ex-vivo.
# Islet microtissues (MTs) were aggregated for 5 days and then released into ultra-low attachment plates. Half of the plates were maintained in standard culture medium (5.5 mM glucose), and half were cultured in high-glucose culture medium (GTX, 8 mM glucose) starting at Day 9, for the duration of the whole experiment. Starting on Day 12 (after 3 days of GTX pre-treatment for the relevant plates), dosing with compound 10, a representative irreversible menin-MLL inhibitor, was initiated, using a Tecan D300e Digital Dispenser for harmine and Biomea compound. DMSO was normalized by volume across all wells. Media was exchanged and compounds redosed every 2-3 days throughout the experiment. EdU was included during the final 4 days of each treatment period. Compound dosing was randomized; to avoid compound cross-contamination between wells, all media exchanges were performed using 96-well deep-well plates with pipette tip exchange.
# Proliferating cells were labeled in 3D by incubating MTs with […] EdU during the final 4 days of compound treatment. At the described termination point (1, 2, or 3 weeks), MTs were washed twice with PBS, fixed for 15 min in 4% PFA, washed twice more with PBS and stored in PBS with 0.05% sodium azide until staining. Islet MTs were then permeabilized with permeabilization buffer (Triton® X-100, 0.5% in PBS w/o Mg2+Ca2+) and washed twice with PBS. EdU was labeled using the Click-it reaction (Click-iT™ EdU Alexa Fluor™ 647 HCS Assay, Thermo Fisher). MTs were washed twice with PBS and blocked with 10% FCS solution to prevent nonspecific antibody binding, before overnight incubation with rabbit mAB NKX6.1 [EPR20405] (Abcam, ab221549) at a 1:200 dilution in antibody dilution buffer (10% FCS, 0.2% Triton® X-100 in PBS w/o Mg2+Ca2+) as a […]. Goat anti-rabbit secondary antibody AF568 (ThermoFisher A11036) was used as secondary antibody at a 1:200 dilution in antibody dilution buffer, along with DAPI. Finally, islet MTs were transferred into Akura 384-well plates and cleared with ScaleS4 for 3D imaging. Images were acquired using the Yokogawa CQI Benchtop High-Content Analysis System, taking fluorescent images in […] z-steps in blue, red and far-red channels. DAPI-, NKX6.1- and EdU-positive nuclei and signal colocalization were quantified in 3D using a customized CellPathfinder pipeline. Proliferating cells and proliferating-cells were manually counted to validate automated results. Statistical significance was determined with One-way ANOVA and Dunnett's multiple comparisons test, rejecting the null hypothesis at p=0.05. Outliers were detected with ROUT's outlier test (Q=5%). No outlier test was applied to the proliferating cells.
# [2] = system: human islet beta cells; assay: Total insulin content of human islet microtissues (insulin ELISA of lysates)
# Experimental: as §1, with “The methodology confirms primary human beta cells can be cultured long term (few weeks) under ex-vivo culture conditions to enable beta cell expansion ex-vivo.” left out
# (§2) At the described termination point (1, 2, or 3 weeks), culture media supernatants were collected for measurement of chronic insulin secretion (insulin secreted since last medium exchange, i.e. 72 hours in this project). […] Tissues were next analyzed for total ATP content using the Promega CellTiter-Glo® Luminescent Cell Viability Assay. […] Supernatants and lysates were appropriately diluted and total and secreted insulin were quantified using ALPCO Stellux® Chemi Human Insulin ELISA.
# [3] = system: human islet beta cells; assay: Glucose stimulated insulin secretion assay in human islet microtissues
# Experimental: as §1, with “The methodology confirms primary human beta cells can be cultured long term (few weeks) under ex-vivo culture conditions to enable beta cell expansion ex-vivo.” left out
# as §2
# [4] = system: human islet microtissues; assay: Total ATP content of human islet microtissues (CellTiter-Glo cell viability); conditions: 0.075 μM, 0.15 μM and 0.3 μM; 1, 2 or 3 weeks; through the duration of the assay
# Experimental: as §1, with “The methodology confirms primary human beta cells can be cultured long term (few weeks) under ex-vivo culture conditions to enable beta cell expansion ex-vivo.” left out
# as §2
# [5] = compound 10 treatment, dose-dependent
# [6] = standard glucose culture conditions (5.5 mM glucose)
structure (smiles),measurement,setting,value
C=CC(=O)N[C@@H]1CCCN(Cc2ccnc(C(=O)Nc3ccc(-c4cc5c(N6CCOCC6)ncnc5[nH]4)cc3)c2)C1 (racemic) [Compound 10],proliferation at all three concentrations,"[1]; 0.075 μM, 0.15 μM, and 0.3 μM, 7, 14, 21 days, reached highest by day 21",increase in proliferation
same,proliferating beta cell fraction (EdU+NKX6.1+/NKX6.1 %),"[1]; Day 14 of culture, compared to DMSO control (FIG. 1, graphs B)",substantially
same,proliferating beta cell fraction (EdU+NKX6.1+/NKX6.1 %),"[1]; Day 21 of culture, compared to DMSO control (FIG. 2, graphs B)",substantially
same,Total cell proliferation,[1]; compared to DMSO control,not increased
same,Total β-cell count,[1]; [5],significantly increased
same,β-cell fraction (NKX6.1+/DAPI+ %),[1]; [5],significantly increased
same,β-cell proliferation relative to solvent control,"[1]; high glucose medium (8 mM glucose), 0.075 μM, 0.15 μM, and 0.3 μM, more pronounced than in standard medium",dose dependent increase
same,beta cell insulin content,"[2]; high glucose conditions (8 mM glucose), treated for 2 and 3 weeks, vs vehicle control (DMSO)",dose dependent increase
same,total insulin content,[2]; [6],largely unchanged
same,glucose stimulated insulin secretion,"[3]; high glucose conditions (8 mM glucose), compared to vehicle treatment",improved
same,glucose stimulated insulin secretion (improvement),[3]; [6],not observed
same,viability as revealed by ATP content readout,[4],good viability

# Source: patent publication US20260240914A1, “MENIN-MLL INHIBITORS AND COMPOSITIONS FOR PROLIFERATION OF BETA CELLS” (BIOMEA FUSION, INC., priority 2022, published 2026)
